The record followed here is patent publication US20040158066A1, “Novel pyridylmethylaminopyrimidines” (priority 2001, published 2004).

≈ marks a conversion by molar mass, not a printed value.

In data set [1] the test system is Helicobacter pylori. As to the kind of experiment: Inhibition of growth in vitro in liquid culture (NanoOrange fluorescence). The format is cell-based. The note with it: liquid culture BHI/6% FCS medium, 24 hours incubation at 37° C., microaerobic, 1% DMSO. The source says:
Determination of the Inhibition of Growth In Vitro in Liquid Culture
The principle of the technique is based on the detection of the multiplication of, for example, Helicobacter pylori in liquid culture using BHI/6% FCS medium. The method ensures linear fluorescence increase in the range from 3×10^6 to 3×10^8 cells.
The bacterial culture was distributed with an initial density of 1-3×10^6 microbes/ml in a 96-well MTP in […]. The test substances in a concentration of […] in a final concentration of 1% DMSO were added to these minicultures. These MTPs were then incubated under microaerobic conditions (Anaerokult, Merck) and with shaking at 37° C. for 24 hours. Following the 24-hour incubation, the minicultures were transferred to filter MTPs and washed twice with isotonic buffer (filtered off with suction, taken up, shaken) and finally were taken up in double-distilled water and shaken, and an aliquot was transferred to a new MTP. This aliquot was admixed with the fluorescent dye NanoOrange (Molecular Probes) in accordance with the manufacturer's instructions. Development of protein detection took place at 90° C. in a pressure-secured sandwich technique. After the plates had cooled, the fluorescence was measured on a plate reader at 549 nm. […] This calculation was made using origin, sigmoidal curve adaptation by means of the ‘logistic’ algorithm.

Data set [2] deals with Helicobacter pylori. As to the kind of experiment: Agar dilution test (inhibition of growth in vitro on agar plates). Type of data set: cell-based. Conditions: 96 h, Columbia agar (Oxoid), growth period of 4 days, read-out: approx. MIC50. The source says: Agar Dilution Test (Determination of the Inhibition of Growth In Vitro on Agar Plates)
The compounds of the formula I were investigated for their activity against Helicobacter pylori in accordance with the methodology described by Tomoyuki Iwahi et al. (Antimicrobial Agents and Chemotherapy, 1991, 490-496) using Columbia agar (Oxoid) over a growth period of 4 days.

For data set [3], the system named is Helicobacter pylori. As to the kind of experiment: Helicobacter pylori eradication rate in vivo (urease test on antrum tissue). Conditions: infected gerbils; 50 mg/kg by tube, 3 × daily for 4 days; urease test four weeks after last treatment. Here is the method:
Determination of the Helicobacter pylori Eradication Rate In Vivo
Gerbils were infected on days 1, 3, and 5 with a suspension containing 10^8-10^9 Helicobacter pylori bacteria per animal. […] Beginning on day 36, the gerbils were treated on four successive days—three times daily at 07.30, 11.30, and 15.00 hours—with a placebo or the test substance, using a tube. Four weeks after the last treatment, the gerbils were sacrificed using CO2. A tissue sample of the antrum was introduced into the urease test solution and incubated at 37° C. for 24 hours. Changes in color of the solution from yellow to violet, which resulted from the increase in pH caused by the formation of NH3 from the urease, were detected. The eradication rate was calculated as the percentage of animals whose stomach tissue sample gave a negative urease test.
Conditions Under which the Animals were Kept:
Groups of 5-10 gerbils per cage (type IV Macrolon cage) were kept at an ambient temperature of 23±2° C. and a relative humidity of 50±10%. They were fed ad libitum with NAFAG feed No. 9439 for rats and mice (NAFAG AG, CH-2900, Gossau, Switzerland) and had free access to mains water during the experiment.
The substances administered are referenced in table C below using numbers which correspond to the numbers of the compounds in the examples.

On to `Cc1nc(C)c(Cl)c(NCc2ccc(Oc3ccc4ncc([N+](=O)[O-])n4n3)cn2)n1.Cl.Cl`, for which the melting point was in the range of 280 to 281 °C.

Molecule `Cc1nc(C)c(Cl)c(NCc2ccc(Oc3ccc4ncc([N+](=O)[O-])n4n3)cn2)n1.O=S(=O)(O)O` displayed a melting point of 233 to 234 °C.

For `COc1c(Oc2ccc3ncc([N+](=O)[O-])n3n2)cnc(CNc2nc(C)nc(C)c2Cl)c1C` [Compound 1, (5-Chloro-2,6-dimethylpyrimidin-4-yl)[4-methoxy-3-methyl-5-(3-nitroimidazo[1,2-b]pyridazin-6-yloxy)pyridin-2-ylmethyl]amine], the melting point lay within 229.5 to 231.5 °C. Further, the half-maximal inhibitory concentration (IC50) in the data set on Helicobacter pylori [1] was 12 nM. The MIC50 with Helicobacter pylori [2] was roughly 0.1 µg/mL (≈ 0.212 µM).

In the case of `COc1c(OCCn2c([N+](=O)[O-])cnc2C)cnc(CNc2nc(C)nc(C)c2Cl)c1C` [Compound 2, (5-Chloro-2,6-dimethylpyrimidin-4-yl){4-methoxy-3-methyl-5-[2-(2-methyl-5-nitroimidazol-1-yl)ethoxy]pyridin-2-ylmethyl}amine], the melting point was 182.5 to 184 °C. This molecule also came in with an IC50 in the data set on Helicobacter pylori [1] of 64 nM. Moreover, the MIC50 in the data set on Helicobacter pylori [2] is roughly 0.1 µg/mL (≈ 0.216 µM).

On to `Cc1nc(C)c(Cl)c(NCc2ccc(Oc3ccc4ncc([N+](=O)[O-])n4n3)cn2)n1` [Compound 3, (5-Chloro-2,6dimethylpyrimidin-4-yl){5-(3-nitroimidazo[1,2-b]pyridazin-6-yloxy)pyridin-2-ylmethyl}amine], for which the melting point was 194 to 198 °C. For the same molecule, in the data set on Helicobacter pylori [1], the half-inhibitory concentration (IC50) is 35 nM. In the data set with Helicobacter pylori [3], this molecule had an Eradication rate of 100%. For the same molecule, the MIC50 with Helicobacter pylori [2] was roughly 0.1 µg/mL (≈ 0.234 µM).

As for `Cc1nc(C)c(Cl)c(NCc2ccc(OCCn3c([N+](=O)[O-])cnc3C)cn2)n1` [Compound 4, (5-Chloro-2,6-dimethylpyrimidin-4-yl){5-[2-(2-methyl-5-nitroimidazol-1-yl)ethoxy]pyridine-2-ylmethyl}amine], the melting point lay in the range of 181.5 to 183.5 °C. The IC50 in the data set on Helicobacter pylori [1] was 40 nM. Moreover, the MIC50 with Helicobacter pylori [2] is roughly 0.1 µg/mL (≈ 0.239 µM).

As to `Cc1nc(C)c(Cl)c(NCc2ccc(Oc3ccc4ncc([N+](=O)[O-])n4n3)c(Cl)n2)n1` [Compound 7, (5-Chloro-2,6-dimethylpyrimidin-4-yl)-[6-chloro-5-(3-nitroimidazo[1,2-b]pyridazin-6-yloxy)pyridin-2-ylmethyl]amine], the melting point was 184 to 186 °C.

`Cc1nc(C)c(Cl)c(NCc2ccc(OCCn3c([N+](=O)[O-])cnc3C)c(Cl)n2)n1` [Compound 8, (5-Chloro-2,6-dimethylpyrimidin-4-yl)-{6-chloro-5-[2-(2-methyl-5-nitroimidazol-1-yl)ethoxy]pyridin-2-ylmethyl}amine]: the melting point is 206 to 208 °C.

In the case of `Cc1nc(C)c(Cl)c(CNCc2ccc(Oc3ccc4ncc([N+](=O)[O-])n4n3)cn2)n1` [Compound 9, (5-Chloro-2,6-dimethylpyrimidin-4-yl)methyl-[5-(3-nitroimidazo[1,2-b]pyridazin-6-yloxy)pyridin-2-ylmethyl]amine], the melting point was in the range of 183 to 184 °C.
